We go through seven compounds from PubChem BioAssay AID492984 (Sanford-Burnham Center for Chemical Genomics, 2010).

Active and inactive are the calls of the source.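 How the source made its calls: active means IC50 below 20 µM in the dose response test; inactive means the rest.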

For the assay, the target named is Type-1 angiotensin II receptor (Homo sapiens) (UniProt P30556). As to the kind of experiment: AGTR1 antagonism selectivity check – cell-based, CHO-K1 PathHunter, luminescence, set 3, selectivity assay for APJ antagonist project, SAR follow-up (AID 492984). To be noted: CHO-K1 AGTR1 PathHunter beta-arrestin.
Type-1 angiotensin II receptor (Homo sapiens), sequence (P30556 whole entry, looked up): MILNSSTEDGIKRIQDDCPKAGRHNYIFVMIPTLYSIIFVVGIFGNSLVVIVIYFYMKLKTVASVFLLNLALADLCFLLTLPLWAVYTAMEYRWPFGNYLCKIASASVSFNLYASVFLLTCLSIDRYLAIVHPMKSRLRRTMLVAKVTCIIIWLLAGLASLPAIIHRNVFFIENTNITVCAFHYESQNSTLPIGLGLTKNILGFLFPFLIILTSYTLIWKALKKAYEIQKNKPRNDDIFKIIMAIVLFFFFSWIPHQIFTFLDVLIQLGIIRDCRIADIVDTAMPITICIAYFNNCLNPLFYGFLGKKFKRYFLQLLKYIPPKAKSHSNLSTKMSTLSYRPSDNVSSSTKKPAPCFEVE
What is called IC50 is the concentration that gives 50% inhibition. Regarding `Cc1cc(C)nc(SCc2cc(=O)c(OS(=O)(=O)c3ccccc3)co2)n1`, the IC50 was > 79 µM (inactive). With `O=C(Oc1coc(CCl)cc1=O)c1ccc(Cl)c([N+](=O)[O-])c1`, the IC50 was > 79 µM (inactive). The result for `Cc1cc(C)nc(SCc2cc(=O)c(OS(=O)(=O)c3ccc([N+](=O)[O-])cc3)co2)n1` reads > 79 µM (inactive); that for `O=c1cc(CSc2ccc(F)cc2)occ1O`, > 79 µM (inactive).

Consider `Cc1ccnc(SCc2cc(=O)c(OC(=O)c3cccc(C#N)c3)co2)n1`, for which the IC50 is > 79 µM (inactive). Then `O=C(Oc1coc(CSc2ncccn2)cc1=O)c1ccc([N+](=O)[O-])cc1`, with > 79 µM (inactive).

With `Cc1ccnc(SCc2cc(=O)c(NC(=O)c3ccccc3)co2)n1`, the IC50 was > 79 µM (inactive).
